Key:
Experiment in all cases: Ba/F3 drug screening, Cell Titer Glo, IC50 Mut/WT
Format in all cases: cell-based
EGFR T790M = biological target: T1, EGFR T790M (Homo sapiens, UniProt P00533, T790M); details: T790M-like-3S, 72 hours
T1 construct: expressed in transfected cells; host or cells: Ba/F3

EGFR L833V = biological target: T2, EGFR L833V (Homo sapiens, UniProt P00533, L833V); details: Classical-Like, 72 hours
T2 construct: expressed in transfected cells; host or cells: Ba/F3 cells, retroviral pBabe-Puro vector

EGFR L858R L718Q = biological target: T3, EGFR L858R L718Q (Homo sapiens, UniProt P00533, L718Q/L858R); details: Ba/F3 cells, EGFR L858R L718Q (PACC), Mut/WT
T3 construct: host or cells: Ba/F3

EGFR L861R = biological target: T4, EGFR L861R (Homo sapiens, UniProt P00533, L861R); details: Classical-Like, 72 hours
T4 construct: expressed in transfected cells; host or cells: Ba/F3 cells, retroviral pBabe-Puro vector (vector made by GeneScript from EGFR WT)

EGFR E709K G719S = biological target: T5, EGFR E709K G719S (Homo sapiens, UniProt P00533, E709K/G719S); details: Ba/F3 cells, EGFR E709K G719S (PACC), Mut/WT
T5 construct: expressed in transfected cells; host or cells: Ba/F3

EGFR A767insASV = biological target: T6, EGFR A767insASV (Homo sapiens, UniProt P00533, DUP767-769); details: Ex20, 72 hours
T6 construct: expressed in transfected cells; host or cells: Ba/F3 cells, retroviral pBabe-Puro vector

EGFR L858R G724S = biological target: T7, EGFR L858R G724S (Homo sapiens, UniProt P00533, G724S/L858R); details: Ba/F3 cells, EGFR L858R G724S (PACC), Mut/WT
T7 construct: expressed in transfected cells; host or cells: Ba/F3 (retroviral transduction, pBabe-Puro based vectors)

EGFR E709_T710del insD = biological target: T8, EGFR E709_T710del insD (Homo sapiens, UniProt P00533, DEL709-709/T710D); details: Ba/F3 cells, EGFR E709_T710del insD (PACC), Mut/WT
T8 construct: expressed in transfected cells; host or cells: Ba/F3

EGFR G724S T790M = biological target: T9, EGFR G724S T790M (Homo sapiens, UniProt P00533, G724S/T790M); details: T790M-like-3R, 72 hours
T9 construct: expressed in transfected cells; host or cells: Ba/F3

EGFR A763insFQEA = biological target: T10, EGFR A763insFQEA (Homo sapiens, UniProt P00533, INS763FQEA); details: Classical-Like, 72 hours
T10 construct: expressed in transfected cells; host or cells: Ba/F3 cells, retroviral pBabe-Puro vector

EGFR S811F = biological target: T11, EGFR S811F (Homo sapiens, UniProt P00533, S811F); details: Classical-Like, 72 hours
T11 construct: expressed in transfected cells; host or cells: Ba/F3 cells, retroviral pBabe-Puro vector (vector made by GeneScript from EGFR WT)

EGFR Ex19del L718Q = biological target: T12, EGFR Ex19del L718Q (Homo sapiens, UniProt P00533, DEL746-750/L718Q); details: Ba/F3 cells, EGFR Ex19del L718Q (PACC), Mut/WT
T12 construct: expressed in transfected cells; host or cells: Ba/F3

EGFR G719A L861Q = biological target: T13, EGFR G719A L861Q (Homo sapiens, UniProt P00533, G719A/L861Q); details: Ba/F3 cells, EGFR G719A L861Q (PACC), Mut/WT
T13 construct: expressed in transfected cells; host or cells: Ba/F3

EGFR L858R T790M L718V = biological target: T14, EGFR L858R T790M L718V (Homo sapiens, UniProt P00533, L718V/L858R/T790M); details: T790M-like-3R, 72 hours
T14 construct: expressed in transfected cells; host or cells: Ba/F3

EGFR Ex19del/C797S = biological target: T15, EGFR Ex19del/C797S (Homo sapiens, UniProt P00533, C797S/DEL746-750); details: Ba/F3 cells, EGFR Ex19del/C797S (PACC), Mut/WT
T15 construct: expressed in transfected cells; host or cells: Ba/F3

EGFR R776C = biological target: T16, EGFR R776C (Homo sapiens, UniProt P00533, R776C); details: Ba/F3 cells, EGFR R776C (PACC), Mut/WT
T16 construct: host or cells: Ba/F3

EGFR L858R/T790M/L718Q = biological target: T17, EGFR L858R/T790M/L718Q (Homo sapiens, UniProt P00533, L718Q/L858R/T790M); details: T790M-like-3R, 72 hours
T17 construct: expressed in transfected cells; host or cells: Ba/F3

EGFR N771dupN = biological target: T18, EGFR N771dupN (Homo sapiens, UniProt P00533, DUP771-771); details: Ex20, 72 hours
T18 construct: expressed in transfected cells; host or cells: Ba/F3 cells, retroviral pBabe-Puro vector

EGFR L858R T790M L792H = biological target: T19, EGFR L858R T790M L792H (Homo sapiens, UniProt P00533, L792H/L858R/T790M); details: T790M-like-3S, 72 hours
T19 construct: expressed in transfected cells; host or cells: Ba/F3

EGFR G719A = biological target: T20, EGFR G719A (Homo sapiens, UniProt P00533, G719A); details: Ba/F3 cells, EGFR G719A (PACC), Mut/WT
T20 construct: expressed in transfected cells; host or cells: Ba/F3

EGFR S768I/T790M = biological target: T21, EGFR S768I/T790M (Homo sapiens, UniProt P00533, S768I/T790M); details: T790M-like-3S, 72 hours
T21 construct: expressed in transfected cells; host or cells: Ba/F3

EGFR L718Q = biological target: T22, EGFR L718Q (Homo sapiens, UniProt P00533, L718Q); details: Ba/F3 cells, EGFR L718Q (PACC), Mut/WT
T22 construct: expressed in transfected cells; host or cells: Ba/F3

EGFR L858R/T790M = biological target: T23, EGFR L858R/T790M (Homo sapiens, UniProt P00533, L858R/T790M); details: T790M-like-3S, 72 hours
T23 construct: expressed in transfected cells; host or cells: Ba/F3

EGFR L718V = biological target: T24, EGFR L718V (Homo sapiens, UniProt P00533, L718V); details: Ba/F3 cells, EGFR L718V (PACC), Mut/WT
T24 construct: expressed in transfected cells; host or cells: Ba/F3

EGFR A763insLQEA = biological target: T25, EGFR A763insLQEA (Homo sapiens, UniProt P00533, INS763LQEA); details: Classical-Like, 72 hours
T25 construct: expressed in transfected cells; host or cells: Ba/F3 cells, retroviral pBabe-Puro vector

EGFR Ex19del/T790M/G724S = biological target: T26, EGFR Ex19del/T790M/G724S (Homo sapiens, UniProt P00533, DEL746-750/G724S/T790M); details: T790M-like-3S, 72 hours
T26 construct: expressed in transfected cells; host or cells: Ba/F3

Which “ratio of IC50 for cells with mutant EGFR to IC50 for cells with wildtype EGFR (Mut/WT)” value (“ratio of IC50 for cells with mutant EGFR” for short) (EGFR T790M) does the source give for `C=CC(=O)Nc1cc(Nc2nccc(-c3c[nH]c4ccccc34)n2)c(OC)cc1N(C)CCN(C)C` [AZ5104] here?
The value was 1.125.

And the “ratio of IC50 for cells with mutant EGFR” value (EGFR L833V)?
Its value is 0.4446.

What about the “ratio of the IC50 value for cells with a PACC EGFR mutation to the IC50 value for cells with wildtype EGFR” value (“ratio of the IC50 value for cells” for short) (EGFR L858R L718Q) of the same molecule?
Its value is 1.635.

And the “ratio of IC50 for cells with mutant EGFR” value (EGFR L861R)?
Its value is 0.2335.

What about the “ratio of the IC50 value for cells” value (EGFR E709K G719S) of the same molecule?
Its value is 0.7973.

What about the “ratio of IC50 for cells with mutant EGFR” value (EGFR A767insASV) of the same molecule?
Its value is 4.661.

And the “ratio of the IC50 value for cells” value (EGFR L858R G724S)?
The value was 0.001759.

And the “ratio of the IC50 value for cells” value (EGFR E709_T710del insD)?
Its value is 0.03063.

And the “ratio of IC50 for cells with mutant EGFR” value (EGFR G724S T790M)?
The value was 0.428.

And the “ratio of IC50 for cells with mutant EGFR” value (EGFR A763insFQEA)?
Its value is 0.3966.

And the “ratio of IC50 for cells with mutant EGFR” value (EGFR S811F)?
The value was 0.002871.

What about the “ratio of the IC50 value for cells” value (EGFR Ex19del L718Q) of the same molecule?
The value was 1.487.

And the “ratio of the IC50 value for cells” value (EGFR G719A L861Q)?
The value was 0.8044.

What about the “ratio of IC50 for cells with mutant EGFR” value (EGFR L858R T790M L718V) of the same molecule?
The value was 19.66.

What about the “ratio of the IC50 value for cells” value (EGFR Ex19del/C797S) of the same molecule?
The value was 49.96.

What about the “ratio of the IC50 value for cells” value (EGFR R776C) of the same molecule?
Its value is 0.1019.

And the “ratio of IC50 for cells with mutant EGFR” value (EGFR L858R/T790M/L718Q)?
The value was 29.86.

And the “ratio of IC50 for cells with mutant EGFR” value (EGFR N771dupN)?
Its value is 0.6044.

What about the “ratio of IC50 for cells with mutant EGFR” value (EGFR L858R T790M L792H) of the same molecule?
Its value is 0.5871.

And the “ratio of the IC50 value for cells” value (EGFR G719A)?
The value was 0.1896.

What about the “ratio of IC50 for cells with mutant EGFR” value (EGFR S768I/T790M) of the same molecule?
The value was 1.619.

And the “ratio of the IC50 value for cells” value (EGFR L718Q)?
Its value is 11.32.

And the “ratio of IC50 for cells with mutant EGFR” value (EGFR L858R/T790M)?
The value was 0.1777.

What about the “ratio of the IC50 value for cells” value (EGFR L718V) of the same molecule?
Its value is 2.622.

And the “ratio of IC50 for cells with mutant EGFR” value (EGFR A763insLQEA)?
Its value is 0.03029.

And the “ratio of IC50 for cells with mutant EGFR” value (EGFR Ex19del/T790M/G724S)?
Its value is 1.673.
